Assay results reported in publication PMC6792352, “Limited Chemical Structural Diversity Found to Modulate Thyroid Hormone Receptor in the Tox21 Chemical Library” (Environmental Health Perspectives, 2019).
Structures can show the parent of a compound that is named as a salt.

test: in vitro; settings: rat, gh3-tre-luc cells, AC50 (uM) modified / 1000

First: CC(C)(Cc1c[nH]c2ccccc12)NCC(O)COc1ccccc1C#N (centres unmarked) [Bucindolol]
Second: CC(C)(c1ccccc1)c1ccccc1 [2,2-Diphenylpropane]
The CC50 at 24 h of the first is lower: 20.5 µM for the first, > 90 µM for the second.

`C=C(C)C(=O)OCCCCCCCCCCOC(=O)C(=C)C` [1,10-Decanediol dimethacrylate] and `CCCCCCCCCCN` [1-Decanamine] cannot be ordered by CC50 at 24 h: > 90 µM for the first, > 90 µM for the second.

`CN1CCOCC1` [4-Methylmorpholine] and `OCCN1CCOCC1` [4-(2-Hydroxyethyl)morpholine] cannot be ordered by CC50 at 24 h: > 90 µM for the first, > 90 µM for the second.

First: COc1ccc(-c2nc3ccc(C4=NNC(=O)CC4C)cc3[nH]2)cc1 (centres unmarked) [Pimobendan hydrochloride]
Second: COc1ccc2c(c1)c(CC(=O)OCC(=O)O)c(C)n2C(=O)c1ccc(Cl)cc1 [Acemetacin]
The CC50 at 24 h of the first is lower: 36.4 µM for the first, > 50 µM for the second.

`FC(F)(F)c1ccccc1Cl` [2-Chlorobenzotrifluoride] and `CNc1cnn(-c2cccc(C(F)(F)F)c2)c(=O)c1Cl` [Norflurazon] cannot be ordered by CC50 at 24 h: > 90 µM for the first, > 90 µM for the second.

Going from `C[C@@H]1[C@H](O)[C@@H](C)/C=C/C=C/C=C/C=C/C=C/C=C/C=C/[C@H](O[C@@H]2O[C@H](C)[C@@H](O)[C@H](N)[C@@H]2O)C[C@@H]2O[C@](O)(C[C@@H](O)C[C@@H](O)[C@H](O)CC[C@@H](O)C[C@@H](O)CC(=O)O[C@H]1C)C[C@H](O)[C@H]2C(=O)O` [Amphotericin B] to `O=C(O)C1(c2ccc3c(c2)OC[C@H](Cc2ccc(-c4ccccc4)cc2)[C@H]3O)CCCC1` [CP-105696], the CC50 at 24 h rises from 32.9 µM to 50.9 µM (1.5-fold).

`CC(=O)OCC1=C(C(=O)O)N2C(=O)[C@@H](N)[C@H]2SC1` [7-Aminocephalosporanic acid] and `CO[C@@]1(NC(=O)Cc2cccs2)C(=O)N2C(C(=O)O)=C(COC(N)=O)CS[C@@H]21` [Cefoxitin] cannot be ordered by CC50 at 24 h: > 20 µM for the first, > 50 µM for the second.

`CCCSC(=O)Cl` [S-(Propyl) chlorothioformate] and `CCCO` [1-Propanol] cannot be ordered by CC50 at 24 h: > 90 µM for the first, > 90 µM for the second.

`CCNc1cccc(C)c1` [N-Ethyl-3-methylaniline] and `Cc1ccccc1[N+](=O)[O-]` [2-Nitrotoluene] cannot be ordered by CC50 at 24 h: > 90 µM for the first, > 90 µM for the second.

`CN(Cc1ccccc1)Cc1ccccc1` [Dibemethine] and `c1ccc(CCCc2ccccn2)cc1` [2-(3-Phenylpropyl)pyridine] cannot be ordered by CC50 at 24 h: > 50 µM for the first, > 90 µM for the second.

`COc1nccnc1NS(=O)(=O)c1ccc(N)cc1` [Sulfalene] and `CCc1nnc(NS(=O)(=O)c2ccc(N)cc2)s1` [Sulfaethidole] cannot be ordered by CC50 at 24 h: > 50 µM for the first, > 50 µM for the second.

First: CCCCNC1CC(C)(C)NC(C)(C)C1 [N-Butyl-2,2,6,6-tetramethylpiperidin-4-amine]
Second: CC(=O)C1=C(C)[C@@H]2C[C@@]3(C1)[C@H](C)CC[C@H]3C2(C)C [Acetyl cedrene]
The CC50 at 24 h of the first is higher: > 90 µM for the first, 56.9 µM for the second.

`O=C(O)c1ccc2cc(C(=O)O)ccc2c1` [2,6-Naphthalenedicarboxylic acid] and `O=C(O)CCNC(=O)c1ccc(/N=N/c2ccc(O)c(C(=O)O)c2)cc1` [Balsalazide] cannot be ordered by CC50 at 24 h: > 90 µM for the first, > 50 µM for the second.

`CC(C)NCC(O)c1ccc2ccccc2c1` (centres unmarked) [Pronethalol] and `COC(=O)Cc1cccc2ccccc12` [Methyl 1-naphthaleneacetate] cannot be ordered by CC50 at 24 h: > 50 µM for the first, > 90 µM for the second.

`C=CC(=O)OCC(CC)CCCC` (centres unmarked) [2-Ethylhexyl acrylate] and `CCOCC(C)O` (centres unmarked) [1-Ethoxy-2-propanol] cannot be ordered by CC50 at 24 h: > 90 µM for the first, > 90 µM for the second.

`OCCN1CCN(CCO)CC1` [1,4-Piperazinediethanol] and `NCCN1CCNCC1` [1-(2-Aminoethyl)piperazine] cannot be ordered by CC50 at 24 h: > 90 µM for the first, > 90 µM for the second.

Going from `CCC(CC)(CC(=O)Nc1cccc(/C=C/c2nc(C3CCC3)cs2)c1)C(=O)O` [Cinalukast] to `COc1cc(C(=O)NS(=O)(=O)c2ccccc2C)ccc1Cc1cn(C)c2ccc(NC(=O)OC3CCCC3)cc12` [Zafirlukast], the CC50 at 24 h falls from > 50 µM to 28.8 µM.

Compared with `Nc1ccc(N)c2c1C(=O)c1ccccc1C2=O` [1,4-Diaminoanthraquinone], `O=C1OC(=O)c2cc(Oc3ccc4c(c3)C(=O)OC4=O)ccc21` [5,5'-Oxybis(2-benzofuran-1,3-dione)] is higher in CC50 at 24 h: 55.3 µM for the first, > 90 µM for the second.

`CC(=O)Nc1ccc(OC(C)=O)cc1` [Diacetamate] and `O=C(O)c1ccc(OCCn2ccnc2)cc1` [Dazoxiben] cannot be ordered by CC50 at 24 h: > 50 µM for the first, > 50 µM for the second.

`CC(C)(C)NSc1nc2ccccc2s1` [N-tert-Butyl-2-benzothiazolesulfenamide] and `C[N+](C)(C)Cc1ccccc1` [Benzyltrimethylammonium chloride] cannot be ordered by CC50 at 24 h: > 90 µM for the first, > 90 µM for the second.

`COC(=O)CS` [Methyl thioglycolate] and `CC(C)COC(=O)c1ccccc1` [Isobutyl benzoate] cannot be ordered by CC50 at 24 h: > 90 µM for the first, > 90 µM for the second.

`CCCCCCCCS(=O)(=O)Cl` [1-Octanesulfonyl chloride] and `CCCCCCCCBr` [1-Bromooctane] cannot be ordered by CC50 at 24 h: > 90 µM for the first, > 90 µM for the second.

`N[C@@H](Cc1cc(I)c(Oc2cc(I)c(O)c(I)c2)c(I)c1)C(=O)O` [Levothyroxine] and `CC(C(=O)O)c1ccc2c(c1)[nH]c1ccc(Cl)cc12` (centres unmarked) [Carprofen] cannot be ordered by CC50 at 24 h: > 60 µM for the first, > 50 µM for the second.

`Oc1cc(O)c(Cl)cn1` [Gimeracil] and `NC(=O)Nc1ccc(Cl)c(Cl)c1` [3,4-Dichlorophenylurea] cannot be ordered by CC50 at 24 h: > 50 µM for the first, > 90 µM for the second.

`COc1cc2c(cc1OC)-c1cc3ccc(OC)c(OC)c3c[n+]1CC2` [Palmatine chloride hydrate] and `COc1ccc(C(=O)NCc2ccc(OCCN(C)C)cc2)cc1OC` [Itopride hydrochloride] cannot be ordered by CC50 at 24 h: > 90 µM for the first, > 50 µM for the second.

`Fc1ccccc1-c1ccccc1` [2-Fluorobiphenyl] and `O=[N+]([O-])c1ccccc1-c1ccccc1` [2-Nitro-1,1'-biphenyl] cannot be ordered by CC50 at 24 h: > 90 µM for the first, > 90 µM for the second.

`c1ccc([C@H]2CN3CCSC3=N2)cc1` [Levamisole hydrochloride] and `OC12N=C(c3ccccc3)SC1Cc1cc(Cl)ccc12` (centres unmarked) [HMR1426] cannot be ordered by CC50 at 24 h: > 50 µM for the first, 56.9 µM for the second.

`ClCc1ccccn1` [2-(Chloromethyl)pyridine hydrochloride] and `Cc1ccccn1` [2-Methylpyridine] cannot be ordered by CC50 at 24 h: > 90 µM for the first, > 90 µM for the second.

Compared with `C[C@@H](NCCCc1cccc(C(F)(F)F)c1)c1cccc2ccccc12` [Cinacalcet hydrochloride], `CC1(C)[C@H](/C=C(\Cl)C(F)(F)F)[C@@H]1C(=O)O[C@@H](C#N)c1cccc(Oc2ccccc2)c1` [?-Cyhalothrin] is higher in CC50 at 24 h: 5.95 µM for the first, > 80 µM for the second.

`CCN(CC)C(=O)N1CCN(C)CC1` [Diethylcarbamazine citrate] and `O=C(COc1ccc(Cl)cc1)N1CCN(Cc2ccc3c(c2)OCO3)CC1` [Fipexide hydrochloride] cannot be ordered by CC50 at 24 h: > 20 µM for the first, 66.7 µM for the second.

`NC(=O)N[C@@H](CCC(=O)O)C(=O)O` [N-Carbamyl-L-glutamic acid] and `N[C@@H](CSCC(=O)O)C(=O)O` [Carbocysteine] cannot be ordered by CC50 at 24 h: > 50 µM for the first, > 50 µM for the second.

`CC1=CC(C)C(C=O)C(C)C1` (centres unmarked) [Isocyclocitral] and `Cc1c(Cl)cccc1[N+](=O)[O-]` [1-Chloro-2-methyl-3-nitrobenzene] cannot be ordered by CC50 at 24 h: > 90 µM for the first, > 90 µM for the second.

`COCc1c(C(C)C)nc(C(C)C)c(/C=C/[C@@H](O)C[C@@H](O)CC(=O)O)c1-c1ccc(F)cc1` [Cerivastatin sodium] and `O=C(CCc1ccc(O)cc1)c1c(O)cc(O)cc1O` [Phloretin] cannot be ordered by CC50 at 24 h: > 50 µM for the first, 61.2 µM for the second.

`Cc1ccccc1NC(=N)NC(=N)N` [1-(o-Tolyl)biguanide] and `O=C(O)C[C@H](NC(=O)OCc1ccccc1)C(=O)O` [N-[(Benzyloxy)carbonyl]-L-aspartic acid] cannot be ordered by CC50 at 24 h: > 90 µM for the first, > 90 µM for the second.

`CCCCCCCCCCCCCCC1CO1` (centres unmarked) [1,2-Epoxyhexadecane] and `CCCOCCOCCO` [2-(2-Propoxyethoxy)ethanol] cannot be ordered by CC50 at 24 h: > 90 µM for the first, > 90 µM for the second.

Compared with `O=C1CCCCCCCCCCCC(=O)OCCO1` [1,4-Dioxacycloheptadecane-5,17-dione], `O=C1CCCCCCCCCCCCCC1` [Cyclopentadecanone] is lower in CC50 at 24 h: > 90 µM for the first, 60.9 µM for the second.

`CC(C)(C)c1cc(O)c(C(C)(C)C)cc1O` [2,5-Di-tert-butylbenzene-1,4-diol] and `Cc1cc(C)c(S(=O)(=O)O)cc1N=Nc1cc(S(=O)(=O)O)c2ccccc2c1O` [FD&C Red 4] are within 1.5-fold of each other in CC50 at 24 h: 37.2 µM for the first, 33.6 µM for the second.

`CCCC[n+]1ccccc1C` [1-Butyl-2-methylpyridinium bromide] and `CCOC(=O)c1ccc(C#Cc2ccc3c(c2)C(C)(C)CCS3)nc1` [Tazarotene] cannot be ordered by CC50 at 24 h: > 90 µM for the first, > 50 µM for the second.

First: Nc1ccc(C(=O)OCCCOC(=O)c2ccc(N)cc2)cc1 [Propane-1,3-diyl bis(4-aminobenzoate)]
Second: CN1[C@@H]2CC[C@H]1C[C@@H](OC(c1ccccc1)c1ccc(Cl)cc1)C2 (some centres unmarked) [Clobenztropine]
The CC50 at 24 h of the first is higher: > 90 µM for the first, 5.13 µM for the second.

`CNC(=O)c1c(I)c(C(=O)NCC(=O)Nc2c(I)c(C(=O)O)c(I)c(C(=O)NCCO)c2I)c(I)c(N(C)C(C)=O)c1I` [Ioxaglic acid] and `COc1nn(C(=O)NS(=O)(=O)c2ccccc2OC(F)(F)F)c(=O)n1C` [Flucarbazone-sodium] cannot be ordered by CC50 at 24 h: > 50 µM for the first, > 90 µM for the second.

For `O=C1OC(=O)c2cc([N+](=O)[O-])ccc21` [4-Nitrophthalic anhydride], the CC50 at 24 h was > 90 µM.

same assay, conditions: rat, gh3-tre-luc cells, AC50 (uM) modified / 1000, Tox21_110001=Tox21_111893; viability, 1 nM T3 present, 24 h

In the case of `O=C1c2ccccc2C(=O)C1C(=O)C(c1ccccc1)c1ccccc1` [Diphacinone], the CC50 at 24 h is reported as > 50 µM.

same assay, conditions: rat, gh3-tre-luc cells, AC50 (uM) modified / 1000, Tox21_110001=Tox21_112688; viability, 1 nM T3 present, 24 h

With `CCCC1CCCCN1` (racemic) [dl-Coniine] the CC50 at 24 h was > 50 µM.

same assay, conditions: rat, gh3-tre-luc cells, AC50 (uM) modified / 1000, Tox21_110001=Tox21_201048; viability, 1 nM T3 present, 24 h

In the case of `Cc1c[nH]cn1` [4-Methylimidazole], the CC50 at 24 h is reported as > 90 µM.

same assay, conditions: rat, gh3-tre-luc cells, AC50 (uM) modified / 1000, Tox21_110001=Tox21_202947; viability, 1 nM T3 present, 24 h

With `O=C1C(=O)c2cccc3cccc1c23` [Acenaphthenequinone] the CC50 at 24 h was > 90 µM.

same assay, conditions: rat, gh3-tre-luc cells, AC50 (uM) modified / 1000, Tox21_110001=Tox21_203002; viability, 1 nM T3 present, 24 h

For `NC(=S)Nc1cccc2ccccc12` [1-(1-Naphthyl)-2-thiourea], the CC50 at 24 h was > 5 µM.
